According to patent US11225474B2, “Crystalline salt forms of 3-(1,2,4-triazolo[4,3-a]pyridine-3-ylethynyl)-4-methyl-N-(4-((4-methylpiperazin-1-yl)methyl)-3-trifluoromethylphenyl)benzamide for medical application” (priority 2016, dated 2022):

Legend:
[1] = Stability of polymorph modifications, suspending in acetone for 6 days; format: physicochemical
Experimental: Crystallinity of all samples obtained was studied using the method of X-ray powder diffraction (to study the crystallinity structure). Diffraction patterns were obtained at a temperature of 25° C. […] Survey step 0.02° 2θ, angle range 3-45° 2θ. Diffraction patterns obtained were studied in detail using X'Pert HighScore Plus software package.

[2] = Hygroscopicity by gravimetric moisture absorption; format: physicochemical; settings: relative air humidity of 90%
Excerpt: Samples were also studied using the following methods: polarization microscopy (Leica DMRB Polarized Microscope, resolution of 1600×1200)—to confirm crystallinity, ion chromatography—to confirm anion and cation stoichiometric proportion, differential scanning calorimetry (DSC) and thermogravimetric analysis (TGA)—to confirm composition and study of temperature stability of samples; ^1H NMR (500 MHz Bruker AVANCE 500.13 MHz, solvent DMSO-d6)—to confirm structure, assess purity and content of organic solvents; gravimetric moisture absorption—to assess hygroscopicity. DSC was carried out using Mettler 822e DSC apparatus. The measuring system was calibrated according to ISO 11357-1 standard based on standard substances phase changes (C6H12; Hg; benzoic acid; Ga; KNO3; In; Sn; Bi; CsCl; purity grade 99.99%). Temperature calibration regular error (determined based on In) is 0.1°. Samples were tested in standard aluminum cells in the artificial air flow at a temperature range of 30-300° C. with heating speed of 10°/min. TG measurements were taken using Mettler 851e SDTA/TGA TG analyzer. The apparatus was calibrated using standard substances melting points (Ag; Al; Bi; In; Sn; purity grade of 99.99%). Weighing error is NMT 0.1% (determined using CaC2O4·2H2O standard). The test was carried out in a standard open aluminum container in the artificial air flow at a temperature range of 30-150° C. with heating speed of 10°/min. To avoid dehydration, the material was not exposed to mechanical treatment before taking measurements.

[3] = Dissolution kinetics (USP Apparatus 1 Basket Method); format: physicochemical; settings: distilled water, 37±1° C., 118 mg salt
Experimental: During further studies of the polymorphous modifications of the methanesulfonic acid salt of 3-(1,2,4-triazolo[4,3-a]pyridine-3-ylethynyl)-4-methyl-N-(4-((4-methylpiperazine-1-yl)methyl)-3-trifluoromethylphenyl)benzamide, the kinetics of dissolution of the free base and the two methanesulfonic acid salt form polymorphous modifications was studied. Dissolution kinetics studies were performed using USP Apparatus 1 Basket Method (USP40, General Chapter <711>. Dissolution), dissolution media volume—700 mL, temperature—37±1° C. paddle stirrers' rotation rate—100 rpm. The test sample dissolution rate was calculated as an average of six repeats. Distilled water was used as the dissolution medium for the polymorphous modifications of 3-(1,2,4-triazolo[4,3-a]pyridine-3-ylethynyl)-4-methyl-N-(4-((4-methylpiperazine-1-yl)methyl)-3-trifluoromethylphenyl)benzamide methanesulfonic acid salt and, and a solution of 12.2 mL of methanesulfonic acid in 500 mL of water was used as the dissolution medium for the free base. Test portions containing 100 mg of 3-(1,2,4-triazolo[4,3-a]pyridine-3-ylethynyl)-4-methyl-N-(4-((4-methylpiperazine-1-yl)methyl)-3-trifluoromethylphenyl)benzamide or 118 mg of 3-(1,2,4-triazolo[4,3-a]pyridine-3-ylethynyl)-4-methyl-N-(4-((4-methylpiperazine-1-yl)methyl)-3-trifluoromethylphenyl)benzamide methanesulfonic acid salt (100 mg calculated as free base) were used for dissolution. In 780 minutes (13 hours) after the beginning of the test, pH of prepared solutions was measured.

EPHA2 = EPHA2 (Homo sapiens, UniProt P29317); test: Human kinase panel at 100 nM; format: biochemical
FGR = FGR (Homo sapiens, UniProt P09769); test: Human kinase panel at 100 nM; format: biochemical
FGR, sequence (P09769 whole entry): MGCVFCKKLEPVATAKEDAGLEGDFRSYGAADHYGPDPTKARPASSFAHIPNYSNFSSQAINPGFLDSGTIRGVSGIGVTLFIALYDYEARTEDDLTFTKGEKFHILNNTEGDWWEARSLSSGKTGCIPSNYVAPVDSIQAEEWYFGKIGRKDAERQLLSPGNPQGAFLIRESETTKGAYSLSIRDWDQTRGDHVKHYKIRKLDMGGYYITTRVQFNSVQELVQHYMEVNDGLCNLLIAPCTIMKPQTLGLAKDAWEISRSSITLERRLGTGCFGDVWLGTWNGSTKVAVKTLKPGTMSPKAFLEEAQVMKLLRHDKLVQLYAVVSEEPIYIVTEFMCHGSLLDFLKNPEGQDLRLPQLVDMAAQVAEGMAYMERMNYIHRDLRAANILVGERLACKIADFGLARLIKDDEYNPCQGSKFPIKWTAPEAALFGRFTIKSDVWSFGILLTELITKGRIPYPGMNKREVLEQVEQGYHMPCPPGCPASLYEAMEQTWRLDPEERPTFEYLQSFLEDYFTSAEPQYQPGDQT

FLT4/VEGFR3 = FLT4/VEGFR3 (Homo sapiens, UniProt P35916); test: Human kinase panel at 100 nM; format: biochemical
FLT4/VEGFR3, sequence (P35916 25-1363): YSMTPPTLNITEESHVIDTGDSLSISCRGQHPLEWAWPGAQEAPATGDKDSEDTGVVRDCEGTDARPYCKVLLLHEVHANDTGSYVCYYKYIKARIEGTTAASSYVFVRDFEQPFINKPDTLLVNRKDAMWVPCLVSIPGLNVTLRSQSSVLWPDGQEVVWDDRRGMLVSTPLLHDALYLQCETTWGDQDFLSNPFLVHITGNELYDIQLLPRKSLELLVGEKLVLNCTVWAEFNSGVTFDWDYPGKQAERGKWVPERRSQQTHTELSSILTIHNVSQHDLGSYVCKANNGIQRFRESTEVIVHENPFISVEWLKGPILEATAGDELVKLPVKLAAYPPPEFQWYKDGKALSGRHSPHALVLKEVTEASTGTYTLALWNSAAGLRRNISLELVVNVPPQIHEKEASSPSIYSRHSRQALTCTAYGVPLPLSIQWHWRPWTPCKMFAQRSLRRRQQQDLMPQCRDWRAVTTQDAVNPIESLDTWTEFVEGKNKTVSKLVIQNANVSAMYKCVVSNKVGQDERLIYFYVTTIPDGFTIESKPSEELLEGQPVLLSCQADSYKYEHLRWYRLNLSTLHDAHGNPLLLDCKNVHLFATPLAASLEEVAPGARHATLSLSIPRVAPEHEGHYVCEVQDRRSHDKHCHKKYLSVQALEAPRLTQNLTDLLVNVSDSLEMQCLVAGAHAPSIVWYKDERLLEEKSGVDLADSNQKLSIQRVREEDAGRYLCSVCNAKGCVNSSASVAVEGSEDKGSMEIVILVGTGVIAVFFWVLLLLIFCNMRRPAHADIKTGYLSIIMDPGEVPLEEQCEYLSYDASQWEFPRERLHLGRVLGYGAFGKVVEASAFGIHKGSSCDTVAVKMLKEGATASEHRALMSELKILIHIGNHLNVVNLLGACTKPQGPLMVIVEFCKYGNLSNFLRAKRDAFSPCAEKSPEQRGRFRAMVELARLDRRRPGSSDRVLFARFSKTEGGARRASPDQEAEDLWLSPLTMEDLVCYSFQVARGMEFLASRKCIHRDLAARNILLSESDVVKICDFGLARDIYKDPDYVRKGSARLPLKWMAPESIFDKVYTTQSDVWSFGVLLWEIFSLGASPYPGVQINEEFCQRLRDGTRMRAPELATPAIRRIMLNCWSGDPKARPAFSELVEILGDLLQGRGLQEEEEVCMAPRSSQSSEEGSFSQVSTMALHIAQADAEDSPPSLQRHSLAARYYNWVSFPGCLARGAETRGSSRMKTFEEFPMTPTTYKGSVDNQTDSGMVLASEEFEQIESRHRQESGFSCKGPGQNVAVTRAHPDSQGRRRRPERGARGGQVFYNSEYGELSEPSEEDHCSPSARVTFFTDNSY

HCK = HCK (Homo sapiens, UniProt P08631); test: Human kinase panel at 100 nM; format: biochemical
HCK, sequence (P08631 whole entry): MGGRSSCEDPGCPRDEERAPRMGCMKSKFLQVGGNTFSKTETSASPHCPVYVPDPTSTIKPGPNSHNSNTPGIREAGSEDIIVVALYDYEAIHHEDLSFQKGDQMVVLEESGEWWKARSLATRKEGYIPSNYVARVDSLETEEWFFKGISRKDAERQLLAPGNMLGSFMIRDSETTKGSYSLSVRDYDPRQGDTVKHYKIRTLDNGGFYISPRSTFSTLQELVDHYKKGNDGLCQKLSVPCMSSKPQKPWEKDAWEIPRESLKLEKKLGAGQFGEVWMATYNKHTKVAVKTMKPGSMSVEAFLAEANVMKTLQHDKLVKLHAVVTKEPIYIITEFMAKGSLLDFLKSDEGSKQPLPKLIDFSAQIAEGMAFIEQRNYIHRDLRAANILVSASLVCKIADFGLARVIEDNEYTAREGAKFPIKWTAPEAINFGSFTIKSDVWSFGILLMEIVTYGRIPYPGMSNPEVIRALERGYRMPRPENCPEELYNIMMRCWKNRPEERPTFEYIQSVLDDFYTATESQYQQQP

P38a/MAPK14 = P38a/MAPK14 (Homo sapiens, UniProt Q16539); test: Human kinase panel at 100 nM; format: biochemical
P38a/MAPK14, sequence (Q16539 whole entry): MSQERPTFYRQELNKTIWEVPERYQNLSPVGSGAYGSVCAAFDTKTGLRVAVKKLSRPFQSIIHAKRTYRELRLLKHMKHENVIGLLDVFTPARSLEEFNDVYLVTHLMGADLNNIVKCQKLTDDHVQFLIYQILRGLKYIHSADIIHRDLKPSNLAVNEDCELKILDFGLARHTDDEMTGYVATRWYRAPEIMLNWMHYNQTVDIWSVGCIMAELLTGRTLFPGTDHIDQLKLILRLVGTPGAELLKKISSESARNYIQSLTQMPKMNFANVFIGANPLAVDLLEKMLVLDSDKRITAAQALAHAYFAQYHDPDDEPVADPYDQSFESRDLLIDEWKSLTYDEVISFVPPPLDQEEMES

RIPK3 = RIPK3 (Homo sapiens, UniProt Q9Y572); test: Human kinase panel at 100 nM; format: biochemical
ZAK/MLTK = ZAK/MLTK (Homo sapiens, UniProt Q9NYL2); test: Human kinase panel at 100 nM; format: biochemical
ZAK/MLTK, sequence (Q9NYL2 whole entry): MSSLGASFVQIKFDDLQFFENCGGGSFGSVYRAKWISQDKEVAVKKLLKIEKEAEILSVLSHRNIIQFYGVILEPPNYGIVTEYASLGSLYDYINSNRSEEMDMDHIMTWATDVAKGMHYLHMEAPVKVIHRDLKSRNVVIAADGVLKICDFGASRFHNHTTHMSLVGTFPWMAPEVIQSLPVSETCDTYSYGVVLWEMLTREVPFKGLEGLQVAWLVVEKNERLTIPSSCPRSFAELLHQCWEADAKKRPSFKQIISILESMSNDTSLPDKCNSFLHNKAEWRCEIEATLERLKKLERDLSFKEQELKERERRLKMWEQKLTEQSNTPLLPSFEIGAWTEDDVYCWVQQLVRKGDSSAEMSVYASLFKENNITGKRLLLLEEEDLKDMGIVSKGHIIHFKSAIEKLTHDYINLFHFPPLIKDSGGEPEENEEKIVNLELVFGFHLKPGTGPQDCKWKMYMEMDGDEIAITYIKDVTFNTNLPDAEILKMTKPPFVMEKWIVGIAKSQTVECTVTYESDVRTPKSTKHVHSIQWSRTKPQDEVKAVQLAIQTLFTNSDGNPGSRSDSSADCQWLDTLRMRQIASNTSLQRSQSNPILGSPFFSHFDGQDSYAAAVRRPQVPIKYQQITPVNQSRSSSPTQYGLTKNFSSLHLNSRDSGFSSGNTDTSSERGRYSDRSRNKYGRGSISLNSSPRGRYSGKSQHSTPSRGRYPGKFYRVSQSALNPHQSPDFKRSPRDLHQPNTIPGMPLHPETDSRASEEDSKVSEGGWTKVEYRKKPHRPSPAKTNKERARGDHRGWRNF

SupB15 = test: Cytotoxicity, Ph+ ALL model cell line; format: cell-based; settings: Homo sapiens, SUP-B15, read-out: IC50 (toxicity)
BaF3/BCR-ABL Y253F = test: Toxicity to transduced BaF3 model tumor cell line; format: cell-based, murine; settings: Mus musculus
BaF3/BCR-ABL E255K = test: Toxicity to transduced BaF3 model tumor cell line; format: cell-based, murine; settings: Mus musculus
CCRF-CEM = test: Cytotoxicity, acute lymphoblastic leukemia line; format: cell-based, human
SR = test: Cytotoxicity, lymphoma line; format: cell-based, human
EL4 = test: Cytotoxicity, lymphoma line; format: cell-based, human
in vivo = format: in vivo; settings: mice
CYP3A4 = CYP3A4 (Homo sapiens, UniProt P08684); test: Metabolism study using cytochrome enzyme drugs; format: in vitro ADME
CYP1A2 = CYP1A2 (Homo sapiens, UniProt P05177); test: Metabolism study using cytochrome enzyme drugs; format: in vitro ADME
CYP1A2, sequence (P05177 whole entry): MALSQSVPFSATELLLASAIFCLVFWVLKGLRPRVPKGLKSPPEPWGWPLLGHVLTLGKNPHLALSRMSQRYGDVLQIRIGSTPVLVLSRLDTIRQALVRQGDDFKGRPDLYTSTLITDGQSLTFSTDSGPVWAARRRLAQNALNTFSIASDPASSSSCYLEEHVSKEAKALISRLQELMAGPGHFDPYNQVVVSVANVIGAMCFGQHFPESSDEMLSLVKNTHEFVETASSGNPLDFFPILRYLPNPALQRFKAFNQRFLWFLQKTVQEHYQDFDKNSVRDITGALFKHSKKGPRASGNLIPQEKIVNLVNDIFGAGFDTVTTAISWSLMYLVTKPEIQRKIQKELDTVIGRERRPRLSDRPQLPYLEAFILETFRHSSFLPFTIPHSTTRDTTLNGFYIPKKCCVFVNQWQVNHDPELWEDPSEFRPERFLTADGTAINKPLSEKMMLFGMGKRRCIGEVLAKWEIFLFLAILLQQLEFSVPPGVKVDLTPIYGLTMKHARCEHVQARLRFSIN

CYP2C9 = CYP2C9 (Homo sapiens, UniProt P11712); test: Metabolism study using cytochrome enzyme drugs; format: in vitro ADME; settings: 2C9
CYP2C9, sequence (P11712 whole entry): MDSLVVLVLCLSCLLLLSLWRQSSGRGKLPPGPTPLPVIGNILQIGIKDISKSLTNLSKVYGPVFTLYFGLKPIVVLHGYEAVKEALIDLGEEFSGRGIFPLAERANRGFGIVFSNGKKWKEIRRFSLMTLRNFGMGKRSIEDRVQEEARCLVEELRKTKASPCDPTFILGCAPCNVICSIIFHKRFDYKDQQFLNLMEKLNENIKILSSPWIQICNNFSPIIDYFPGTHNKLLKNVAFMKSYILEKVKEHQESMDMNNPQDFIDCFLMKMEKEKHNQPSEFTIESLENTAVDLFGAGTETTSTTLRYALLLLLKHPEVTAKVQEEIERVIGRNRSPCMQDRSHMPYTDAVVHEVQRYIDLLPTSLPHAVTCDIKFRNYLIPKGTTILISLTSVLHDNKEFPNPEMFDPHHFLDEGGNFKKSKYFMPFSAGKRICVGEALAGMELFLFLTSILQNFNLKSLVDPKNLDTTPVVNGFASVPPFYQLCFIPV

CYP2C19 = CYP2C19 (Homo sapiens, UniProt P33261); test: Metabolism study using cytochrome enzyme drugs; format: in vitro ADME; settings: 2C19
CYP2C19, sequence (P33261 whole entry): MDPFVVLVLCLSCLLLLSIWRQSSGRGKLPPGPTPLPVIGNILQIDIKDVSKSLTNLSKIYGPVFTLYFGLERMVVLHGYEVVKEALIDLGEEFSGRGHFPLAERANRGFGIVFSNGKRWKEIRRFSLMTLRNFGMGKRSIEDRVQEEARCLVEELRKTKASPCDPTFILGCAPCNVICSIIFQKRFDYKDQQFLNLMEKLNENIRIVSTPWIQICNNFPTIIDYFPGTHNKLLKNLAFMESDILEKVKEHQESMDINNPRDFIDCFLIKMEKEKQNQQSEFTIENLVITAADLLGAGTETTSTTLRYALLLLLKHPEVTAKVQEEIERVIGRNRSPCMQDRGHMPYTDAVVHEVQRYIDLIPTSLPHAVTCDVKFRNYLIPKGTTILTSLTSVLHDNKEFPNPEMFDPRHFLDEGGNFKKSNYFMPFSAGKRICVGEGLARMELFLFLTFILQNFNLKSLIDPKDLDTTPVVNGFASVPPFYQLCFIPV

[4] = Daily intragastric administration during 28 days, rats; settings: rat, in vivo, po; for MTD at 28 days: daily intragastric
murine marrow cells = test: Gene toxicity: metaphase chromosome aberration assay; format: in vivo; settings: all doses tested
HCT116 line cells = settings: oral, 25 mg/kg (21 mg/kg as free base), 20 days
Experimental: To induce pathology, HCT116 line cells were used. Cells in the amount of 200 μL (2.5×10^7 cells/mL) were subcutaneously injected to the right side of thymus-deprived female mice (SCID). […] To determine the efficacy of tumor growth inhibition upon completion of treatment (20 days), the average size ratio was calculated between the therapeutic/control groups (% T/C).

A549 = settings: oral, 25 mg/kg (21 mg/kg as free base), 20 days
Experimental: Thymus-deprived male mice were used in the studies. A549 (1×10^7 cells) were injected with 0.2 mL of matrigel solution (BD Pharmingen) into the left leg of a mouse under ketamine/xylazine anesthesia. In a week after the injections, mice were distributed between therapeutic and control groups that were randomized by tumor size. Oral administration of the methanesulfonic acid salt of 3-(1,2,4-triazolo[4,3-a]pyridine-3-ylethynyl)-4-methyl-N-(4-((4-methylpiperazine-1-yl)methyl)-3-trifluoromethylphenyl)benzamide at a dose of 25 mg/kg (equivalent to 21 mg/kg calculated as the free base) was started on the next day after randomization and continued for 20 days. To determine the efficacy of tumor growth inhibition, the average size ratio was calculated for the therapeutic/control groups (% T/C).

Bcr-Abl = Bcr-Abl (Homo sapiens, UniProt P00519); test: Bcr-Abl tyrosine kinase enzyme activity
Bcr-Abl (F317I) = Bcr-Abl (F317I) (Homo sapiens, UniProt P00519, F317I, form not given); test: Bcr-Abl tyrosine kinase enzyme activity
Bcr-Abl (Q252H) = Bcr-Abl (Q252H) (Homo sapiens, UniProt P00519, Q252H, form not given); test: Bcr-Abl tyrosine kinase enzyme activity

CS(=O)(=O)O.Cc1ccc(C(=O)Nc2ccc(CN3CCN(C)CC3)c(C(F)(F)F)c2)cc1C#Cc1nnc2ccccn12 [methanesulfonic acid salt, 3-(1,2,4-triazolo[4,3-a]pyridine-3-ylethynyl)-4-methyl-N-(4-((4-methylpiperazin-1-yl)methyl)-3-trifluoromethylphenyl)benzamide mono methanesulfonic acid salt]
crystalline structure after suspending in acetone ([1]; acetone, 6 days): remained unchanged | Crystallinity in 6 days ([1]; suspending in acetone for 6 days, room temperature): Cryst. | water absorbed (hygroscopicity) [2]: less than two mass percent of water | time for 95% to transfer to the solution [3]: less than one minute | time to full dissolution [3]: less than 4 minutes | inhibition at 0.1 µM (EPHA2): > 50% | inhibition at 0.1 µM (FGR): > 50% | inhibition at 0.1 µM (FLT4/VEGFR3): > 50% | inhibition at 0.1 µM (HCK): > 50% | inhibition at 0.1 µM (P38a/MAPK14): > 50% | inhibition at 0.1 µM (RIPK3): > 50% | inhibition at 0.1 µM (ZAK/MLTK): > 50% | IC50 (SupB15): 50 nM | IC50 (BaF3/BCR-ABL Y253F): 25 nM | IC50 (BaF3/BCR-ABL E255K): 25 nM | cytotoxicity (CCRF-CEM): showed cytotoxicity | cytotoxicity (SR): showed cytotoxicity | cytotoxicity (EL4): showed cytotoxicity | half-life (in vivo; mouse, in vivo, read-out: half-life period (converted)): ~180 min | AUC (in vivo; mouse, in vivo, oral, 5 mg/kg): 372 ng·h/mL | AUC (in vivo; mouse, in vivo, oral, 50 mg/kg): 12100 ng·h/mL | maximum concentration (in vivo; oral, 5 mg/kg): 82 ng/mL | maximum concentration (in vivo; oral, 50 mg/kg): 1,099 ng/mL | period of absorption to maximum concentration (in vivo; oral, 5 to 50 mg/kg): 2 to 4 h | participation of the isoform in metabolism (CYP3A4): involves participation | participation of the isoform in metabolism (CYP1A2): does not involve | participation of the isoform in metabolism (CYP2C9): does not involve | participation of the isoform in metabolism (CYP2C19): does not involve | Cmax ([4]; Day 28, dose of 50 mg/kg daily intragastric): 661 ± 289 ng/mL | AUC ([4]; Day 28, dose of 50 mg/kg daily intragastric, read-out: AUC24): 8600 ng·h/mL | MTD at 28 days ([4]; 2 separate studies, dose of the salt): 50 to 73 mg/kg | MTD at 28 days ([4]; calculated as a free base): 42 to 62 mg/kg | genotoxic effects (murine marrow cells): had no genotoxic effects | Equilibrium solubility (deionized water, HPLC analysis, listed as HAL-G-196-20): >100 mg/mL | pH (equilibrium solubility test in water): 3.6 | Crystallinity in 24 h (solid in water, equilibrium solubility test): Dissolution | solubility relative to the free base (water): 10,000 fold | T/C (average tumor size ratio therapeutic/control) (HCT116 line cells): < 35% | T/C (average tumor size ratio therapeutic/control) (A549): < 35% | IC50 (Bcr-Abl): 0.49 to 3.1 nM | IC50 (Bcr-Abl (F317I)): 2 nM | IC50 (Bcr-Abl (Q252H)): 12 nM
